Source: ChEMBL document CHEMBL1145390, “Synthesis and preliminary biological characterization of new semisynthetic derivatives of ramoplanin” (J Med Chem, 2007)
In brackets after ≈: the same amount, converted by molar mass.

Columns and labels:
Enterococcus faecium [1] = test: Antibacterial activity against vancomycin A-resistant Enterococcus faecium clinical isolate in presence of 30% bovine serum after 24 hrs by broth microdilution method; format: functional
Streptococcus pyogenes = test: Antibacterial activity against Streptococcus pyogenes C203 after 24 hrs by broth microdilution method; format: functional; settings: C203, 24 h, read-out: MIC
[2] = Toxicity assessed as hemolysis in erythrocytes at 300 mg/L; format: cell-based, Erythrocyte; settings: human, read-out: Activity
Escherichia coli = test: Antibacterial activity against Escherichia coli SKF-12140 after 24 hrs by broth microdilution method; format: functional; settings: read-out: MIC
Staphylococcus aureus [3] = test: Antibacterial activity against methicillin-resistant and vancomycin-intermediate resistant Staphylococcus aureus clinical isolate after 24 hrs by broth microdilution method; format: functional; settings: read-out: MIC
Staphylococcus aureus [4] = test: Antibacterial activity against Staphylococcus aureus Smith after 24 hrs by broth microdilution method; format: functional; settings: read-out: MIC
Enterococcus faecalis [5] = test: Antibacterial activity against vancomycin-resistant Enterococcus faecalis in presence of 30% bovine serum after 24 hrs by broth microdilution method; format: functional
[6] = Toxicity assessed as hemolysis in erythrocytes at 600 mg/L; format: cell-based, Erythrocyte; settings: human, read-out: Activity
Staphylococcus aureus [7] = test: Antibacterial activity against vancomycin-intermediate resistant Staphylococcus aureus clinical isolate in presence of 30% bovine serum after 24 hrs by broth microdilution method; format: functional
[8] = Toxicity assessed as hemolysis in erythrocytes at 1200 mg/L; format: cell-based, Erythrocyte; settings: human, read-out: Activity
Staphylococcus aureus [9] = test: Antibacterial activity against vancomycin-intermediate resistant Staphylococcus aureus clinical isolate after 24 hrs by broth microdilution method; format: functional
Enterococcus faecium [10] = test: Antibacterial activity against Enterococcus faecium after 24 hrs by broth microdilution method; format: functional; settings: read-out: MIC
Candida albicans = test: Antifungal activity against Candida albicans SKF-2270 after 24 hrs by broth microdilution method; format: functional; settings: read-out: MIC
Enterococcus faecium [11] = test: Antibacterial activity against vancomycin A-resistant Enterococcus faecium clinical isolate after 24 hrs by broth microdilution method; format: functional; settings: read-out: MIC
Staphylococcus aureus [12] = test: Antibacterial activity against Staphylococcus aureus Smith in presence of 30% bovine serum after 24 hrs by broth microdilution method; format: functional
Staphylococcus aureus [13] = test: Antibacterial activity against methicillin-resistant Staphylococcus aureus clinical isolate after 24 hrs by broth microdilution method; format: functional; settings: read-out: MIC
Enterococcus faecalis [14] = test: Antibacterial activity against Enterococcus faecalis after 24 hrs by broth microdilution method; format: functional; settings: read-out: MIC
Enterococcus faecalis [15] = test: Antibacterial activity against vancomycin A-resistant Enterococcus faecalis after 24 hrs by broth microdilution method; format: functional; settings: read-out: MIC
[16] = Toxicity assessed as hemolysis in erythrocytes at 100 mg/L; format: cell-based, Erythrocyte; settings: human, read-out: Activity
[17] = Toxicity assessed as hemolysis in erythrocytes at 180 mg/L; format: cell-based, Erythrocyte; settings: human, erythrocytes; read-out: Activity
[18] = Toxicity assessed as hemolysis in erythrocytes at 400 mg/L; format: cell-based, Erythrocyte; settings: human, read-out: Activity
[19] = Toxicity assessed as hemolysis in erythrocytes at 90 mg/L; format: cell-based, Erythrocyte; settings: human, erythrocytes; read-out: Activity
[20] = Toxicity assessed as hemolysis in erythrocytes at 200 mg/L; format: cell-based, Erythrocyte; settings: human, read-out: Activity

Compound	MIC (Enterococcus faecium [1]) [µg/mL]	MIC (Streptococcus pyogenes) [µg/mL]	hemolysis at 300 mg/L [2] [%]	MIC (Escherichia coli) [µg/mL]	MIC (Staphylococcus aureus [3]) [µg/mL]	MIC (Staphylococcus aureus [4]) [µg/mL]	MIC (Enterococcus faecalis [5]) [µg/mL]	hemolysis at 600 mg/L [6] [%]	MIC (Staphylococcus aureus [7]) [µg/mL]	hemolysis at 1200 mg/L [8] [%]	MIC (Staphylococcus aureus [9]) [µg/mL]	MIC (Enterococcus faecium [10]) [µg/mL]	MIC (Candida albicans) [µg/mL]	MIC (Enterococcus faecium [11]) [µg/mL]	MIC (Staphylococcus aureus [12]) [µg/mL]	MIC (Staphylococcus aureus [13]) [µg/mL]	MIC (Enterococcus faecalis [14]) [µg/mL]	hemolysis at 100 mg/L [16] [%]	hemolysis at 400 mg/L [18] [%]	hemolysis at 200 mg/L [20] [%]	also measured
Cc1cc(C)cc(CC(=O)N[C@@H](CC(N)=O)C(=O)NC[C@@H]2C(=O)N[C@H](c3ccc(O)cc3)C(=O)N[C@H](CCCN)C(=O)N[C@H](C(C)C)C(=O)N[C@@H](c3ccc(O)cc3)C(=O)N[C@H](c3ccc(O)cc3)C(=O)N[C@@H]([C@@H](C)O)C(=O)N[C@@H](Cc3ccccc3)C(=O)N[C@H](CCCN)C(=O)N[C@@H](c3ccc(O[C@H]4O[C@H](CO)[C@@H](O)[C@H](O)[C@@H]4O[C@H]4O[C@H](CO)[C@@H](O)[C@H](O)[C@@H]4O)cc3)C(=O)N[C@H]([C@@H](C)O)C(=O)N[C@@H](c3ccc(O)cc3)C(=O)NCC(=O)N[C@@H](CC(C)C)C(=O)N[C@H](C)C(=O)N[C@@H](c3ccc(O)c(Cl)c3)C(=O)O[C@@H]2C(N)=O)c1	2	≤ 0.125	0	> 128	1 (≈ 0.388 µM)	≤ 0.125	1	18	4	87	0.5 (≈ 0.194 µM)	0.25 (≈ 0.097 µM)	> 128	≤ 0.125	1	≤ 0.125	≤ 0.125	–	–	–	–
Cc1cccc(C)c1CC(=O)N[C@@H](CC(N)=O)C(=O)NC[C@@H]1C(=O)N[C@H](c2ccc(O)cc2)C(=O)N[C@H](CCCN)C(=O)N[C@H](C(C)C)C(=O)N[C@@H](c2ccc(O)cc2)C(=O)N[C@H](c2ccc(O)cc2)C(=O)N[C@@H]([C@@H](C)O)C(=O)N[C@@H](Cc2ccccc2)C(=O)N[C@H](CCCN)C(=O)N[C@@H](c2ccc(O[C@H]3O[C@H](CO)[C@@H](O)[C@H](O)[C@@H]3O[C@H]3O[C@H](CO)[C@@H](O)[C@H](O)[C@@H]3O)cc2)C(=O)N[C@H]([C@@H](C)O)C(=O)N[C@@H](c2ccc(O)cc2)C(=O)NCC(=O)N[C@@H](CC(C)C)C(=O)N[C@H](C)C(=O)N[C@@H](c2ccc(O)c(Cl)c2)C(=O)O[C@@H]1C(N)=O	4	≤ 0.125	0	> 128	1 (≈ 0.388 µM)	≤ 0.125	1	13	2	43	0.25 (≈ 0.097 µM)	0.5 (≈ 0.194 µM)	> 128	0.25 (≈ 0.097 µM)	0.5	≤ 0.125	≤ 0.125	–	–	–	–
CC(C)C[C@@H]1NC(=O)CNC(=O)[C@H](c2ccc(O)cc2)NC(=O)[C@@H]([C@@H](C)O)NC(=O)[C@H](c2ccc(O[C@H]3O[C@H](CO)[C@@H](O)[C@H](O)[C@@H]3O[C@H]3O[C@H](CO)[C@@H](O)[C@H](O)[C@@H]3O)cc2)NC(=O)[C@@H](CCCN)NC(=O)[C@H](Cc2ccccc2)NC(=O)[C@H]([C@@H](C)O)NC(=O)[C@@H](c2ccc(O)cc2)NC(=O)[C@H](c2ccc(O)cc2)NC(=O)[C@@H](C(C)C)NC(=O)[C@@H](CCCN)NC(=O)[C@@H](c2ccc(O)cc2)NC(=O)[C@@H](CNC(=O)[C@H](CC(N)=O)NC(=O)Cc2ccccc2)[C@@H](C(N)=O)OC(=O)[C@H](c2ccc(O)c(Cl)c2)NC(=O)[C@@H](C)NC1=O.Cl	1	–	–	> 128	4	1	2	–	2	–	2	2	> 128	1	1	1	2	3	2	0	MIC (Enterococcus faecalis [15]): 2 µg/mL; hemolysis at 180 mg/L [17]: 0%; hemolysis at 90 mg/L [19]: 0%
CC(C)/C=C/C=C\CC(=O)N[C@@H](CC(N)=O)C(=O)NC[C@@H]1C(=O)N[C@H](c2ccc(O)cc2)C(=O)N[C@H](CCCN)C(=O)N[C@H](C(C)C)C(=O)N[C@@H](c2ccc(O)cc2)C(=O)N[C@H](c2ccc(O)cc2)C(=O)N[C@@H]([C@@H](C)O)C(=O)N[C@@H](Cc2ccccc2)C(=O)N[C@H](CCCN)C(=O)N[C@@H](c2ccc(O[C@H]3O[C@H](CO)[C@@H](O)[C@H](O)[C@@H]3O[C@H]3O[C@H](CO)[C@@H](O)[C@H](O)[C@@H]3O)cc2)C(=O)N[C@H]([C@@H](C)O)C(=O)N[C@@H](c2ccc(O)cc2)C(=O)NCC(=O)N[C@@H](CC(C)C)C(=O)N[C@H](C)C(=O)N[C@@H](c2ccc(O)c(Cl)c2)C(=O)O[C@@H]1C(N)=O	1	≤ 0.125	–	> 128	1 (≈ 0.39 µM)	≤ 0.125	0.5	–	2	–	0.5 (≈ 0.195 µM)	0.25 (≈ 0.0974 µM)	> 128	≤ 0.125	0.5	≤ 0.125	≤ 0.125	64	97	81	–
CCCCCCCC(=O)N[C@@H](CC(N)=O)C(=O)NC[C@@H]1C(=O)N[C@H](c2ccc(O)cc2)C(=O)N[C@H](CCCN)C(=O)N[C@H](C(C)C)C(=O)N[C@@H](c2ccc(O)cc2)C(=O)N[C@H](c2ccc(O)cc2)C(=O)N[C@@H]([C@@H](C)O)C(=O)N[C@@H](Cc2ccccc2)C(=O)N[C@H](CCCN)C(=O)N[C@@H](c2ccc(O[C@H]3O[C@H](CO)[C@@H](O)[C@H](O)[C@@H]3O[C@H]3O[C@H](CO)[C@@H](O)[C@H](O)[C@@H]3O)cc2)C(=O)N[C@H]([C@@H](C)O)C(=O)N[C@@H](c2ccc(O)cc2)C(=O)NCC(=O)N[C@@H](CC(C)C)C(=O)N[C@H](C)C(=O)N[C@@H](c2ccc(O)c(Cl)c2)C(=O)O[C@@H]1C(N)=O.Cl	1	0.06	–	> 128	2	0.125	1	–	2	–	1	0.125	> 128	< 0.06	1	0.25	0.125	0	59	5	MIC (Enterococcus faecalis [15]): 0.125 µg/mL; hemolysis at 180 mg/L [17]: 16%; hemolysis at 90 mg/L [19]: 0%
CCc1ccccc1CC(=O)N[C@@H](CC(N)=O)C(=O)N[C@@H]1C(=O)N[C@H](c2ccc(O)cc2)C(=O)N[C@H](CCCN)C(=O)N[C@H]([C@@H](C)O)C(=O)N[C@@H](c2ccc(O)cc2)C(=O)N[C@H](c2ccc(O)cc2)C(=O)N[C@@H]([C@H](C)O)C(=O)N[C@@H](Cc2ccccc2)C(=O)N[C@H](CCCN)C(=O)N[C@@H](c2ccc(O[C@H]3O[C@H](CO)[C@@H](O)[C@H](O)[C@@H]3O[C@H]3O[C@H](CO)[C@@H](O)[C@H](O)[C@@H]3O)cc2)C(=O)N[C@H]([C@@H](C)O)C(=O)N[C@@H](c2ccc(O)cc2)C(=O)NCC(=O)N[C@@H](CC(C)C)C(=O)N[C@H](C)C(=O)N[C@@H](c2ccc(O)c(Cl)c2)C(=O)O[C@@H]1C(N)=O	–	–	1	–	–	–	–	1	–	76	–	–	–	–	–	–	–	–	–	–	–
CCC/C=C/C=C\CC(=O)N[C@@H](CC(N)=O)C(=O)NC[C@@H]1C(=O)N[C@H](c2ccc(O)cc2)C(=O)N[C@H](CCCN)C(=O)N[C@H](C(C)C)C(=O)N[C@@H](c2ccc(O)cc2)C(=O)N[C@H](c2ccc(O)cc2)C(=O)N[C@@H]([C@@H](C)O)C(=O)N[C@@H](Cc2ccccc2)C(=O)N[C@H](CCCN)C(=O)N[C@@H](c2ccc(O[C@H]3O[C@H](CO)[C@@H](O)[C@H](O)[C@@H]3O[C@H]3O[C@H](CO)[C@@H](O)[C@H](O)[C@@H]3O)cc2)C(=O)N[C@H]([C@@H](C)O)C(=O)N[C@@H](c2ccc(O)cc2)C(=O)NCC(=O)N[C@@H](CC(C)C)C(=O)N[C@H](C)C(=O)N[C@@H](c2ccc(O)c(Cl)c2)C(=O)O[C@@H]1C(N)=O	1	≤ 0.125	–	> 128	1 (≈ 0.39 µM)	≤ 0.125	0.5	–	2	–	0.5 (≈ 0.195 µM)	≤ 0.125	> 128	–	0.5	≤ 0.125	≤ 0.125	65	94	83	–
